{"source": "ChEMBL document CHEMBL4043209", "about": "“1-Phenyl-1H-indole derivatives as a new class of Bcl-2/Mcl-1 dual inhibitors: Design, synthesis, and preliminary biological evaluation” (Bioorg Med Chem, 2017)", "key": {"[1]": {"target": "Induced myeloid leukemia cell differentiation protein Mcl-1 (Homo sapiens, UniProt Q07820)", "sequence (Q07820 whole entry)": "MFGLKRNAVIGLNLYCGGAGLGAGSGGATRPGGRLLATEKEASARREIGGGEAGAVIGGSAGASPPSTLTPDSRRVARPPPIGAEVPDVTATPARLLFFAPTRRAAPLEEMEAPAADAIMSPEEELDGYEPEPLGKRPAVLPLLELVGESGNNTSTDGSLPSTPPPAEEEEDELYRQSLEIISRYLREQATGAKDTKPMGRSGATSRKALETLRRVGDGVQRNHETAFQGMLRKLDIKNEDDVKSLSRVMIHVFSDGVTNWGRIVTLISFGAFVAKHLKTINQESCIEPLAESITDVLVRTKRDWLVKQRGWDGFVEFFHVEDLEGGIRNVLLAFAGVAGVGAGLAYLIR", "assay": "Inhibition of 5-FAM-Bid-BH3 peptide binding to Mcl1 (unknown origin) pre-incubated for 30 mins followed by further incubation with 5-FAM-Bid-BH3 peptide for 20 mins by fluorescence polarization assay"}, "Bcl-2-like protein 1": {"target": "Bcl-2-like protein 1 (Homo sapiens, UniProt Q07817)", "sequence (Q07817 whole entry)": "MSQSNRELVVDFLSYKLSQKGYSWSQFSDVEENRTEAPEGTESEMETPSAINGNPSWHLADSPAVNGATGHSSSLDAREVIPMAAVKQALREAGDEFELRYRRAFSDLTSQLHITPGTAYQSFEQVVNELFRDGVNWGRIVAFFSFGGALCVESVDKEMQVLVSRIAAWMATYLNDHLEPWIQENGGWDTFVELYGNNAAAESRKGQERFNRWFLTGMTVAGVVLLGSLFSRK", "assay": "Inhibition of 5-FAM-Bid-BH3 peptide binding to Bcl-XL (unknown origin) pre-incubated for 30 mins followed by further incubation with 5-FAM-Bid-BH3 peptide for 20 mins by fluorescence polarization assay"}, "K562": {"system": "K562", "assay": "Antiproliferative activity against human K562 cells incubated for 48 hrs by MTT assay", "type": "functional, cell-based", "details": "K562, 48 h; call rule not given here"}, "MDA-MB-231": {"system": "MDA-MB-231", "assay": "Antiproliferative activity against human MDA-MB-231 cells incubated for 48 hrs by MTT assay", "type": "functional, cell-based", "details": "MDA-MB-231, 48 h"}, "PC-3": {"system": "PC-3", "assay": "Antiproliferative activity against human PC3 cells incubated for 48 hrs by MTT assay", "type": "functional, cell-based", "details": "PC-3, 48 h"}, "[2]": {"target": "Apoptosis regulator Bcl-2 (Homo sapiens, UniProt P10415)", "sequence (P10415 whole entry)": "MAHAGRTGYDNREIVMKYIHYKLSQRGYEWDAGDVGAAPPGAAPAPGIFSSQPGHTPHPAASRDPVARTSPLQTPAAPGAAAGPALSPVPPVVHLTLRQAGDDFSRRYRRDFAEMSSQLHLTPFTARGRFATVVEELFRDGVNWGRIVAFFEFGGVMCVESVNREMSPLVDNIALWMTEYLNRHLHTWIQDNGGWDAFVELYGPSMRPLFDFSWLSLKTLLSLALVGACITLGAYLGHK", "assay": "Inhibition of 5-FAM-Bid-BH3 peptide binding to Bcl2 (unknown origin) pre-incubated for 30 mins followed by further incubation with 5-FAM-Bid-BH3 peptide for 20 mins by fluorescence polarization assay"}}}
{"molecule": "Cc1ccc(S(=O)(=O)NC(=O)[C@H](Cc2ccccc2)N2C(=O)/C(=C/c3ccc(-c4ccccc4)cc3)SC2=S)cc1", "values": [{"measurement": "Ki", "setting": "[1]", "result": 0.47, "unit": "µM"}, {"measurement": "Ki", "setting": "Bcl-2-like protein 1; read-out: Ki", "result": 1.2, "unit": "µM"}, {"measurement": "IC50", "setting": "K562", "result": 44, "unit": "µM"}, {"measurement": "IC50", "setting": "MDA-MB-231", "result": 45.9, "unit": "µM"}, {"measurement": "IC50", "setting": "PC-3", "result": 30.1, "unit": "µM"}, {"measurement": "Ki", "setting": "[2]", "result": 0.94, "unit": "µM"}]}
{"molecule": "COc1ccc2c(c1)c(CC(=O)N[C@@H](Cc1ccccc1)C(=O)NS(=O)(=O)c1ccc([N+](=O)[O-])cc1)c(C)n2-c1ccc(-c2ccccc2)cc1", "values": [{"measurement": "Ki", "setting": "[2]", "result": 0.91, "unit": "µM"}]}
{"molecule": "COc1ccc2c(c1)c(CC(=O)N[C@@H](Cc1ccccc1)C(=O)NS(=O)(=O)c1ccc(Cl)c([N+](=O)[O-])c1)c(C)n2-c1ccc(-c2ccccc2)cc1", "values": [{"measurement": "Ki", "setting": "[1]", "result": 0.48, "unit": "µM"}, {"measurement": "Ki", "setting": "Bcl-2-like protein 1", "result": "Not Active"}, {"measurement": "IC50", "setting": "K562", "result": 13, "unit": "µM"}, {"measurement": "IC50", "setting": "MDA-MB-231", "result": 42.1, "unit": "µM"}, {"measurement": "IC50", "setting": "PC-3", "result": 13.9, "unit": "µM"}, {"measurement": "Ki", "setting": "[2]", "result": 0.58, "unit": "µM"}]}
{"molecule": "COc1ccc2c(c1)c(CC(=O)NS(=O)(=O)c1ccc(NCCSc3ccccc3)c([N+](=O)[O-])c1)c(C)n2-c1ccc(-c2ccccc2)cc1", "values": [{"measurement": "Ki", "setting": "[2]", "result": "> 10", "unit": "µM"}]}
{"molecule": "COc1ccc2c(c1)c(CC(=O)NS(=O)(=O)c1ccc(N3CCN(C)CC3)c([N+](=O)[O-])c1)c(C)n2-c1ccc(C)cc1", "values": [{"measurement": "Ki", "setting": "[2]", "result": "> 10", "unit": "µM"}]}
{"molecule": "COc1ccc2c(c1)c(CC(=O)NS(=O)(=O)c1ccc(NC3CCCCC3)c([N+](=O)[O-])c1)c(C)n2-c1ccc(-c2ccccc2)cc1", "values": [{"measurement": "Ki", "setting": "[2]", "result": "> 10", "unit": "µM"}]}
{"molecule": "COc1ccc2c(c1)c(CC(=O)N[C@@H](Cc1c[nH]c3ccccc13)C(=O)NS(=O)(=O)c1ccc(Cl)c([N+](=O)[O-])c1)c(C)n2-c1ccc(-c2ccccc2)cc1", "values": [{"measurement": "Ki", "setting": "[2]", "result": 0.83, "unit": "µM"}]}
{"molecule": "COc1ccc2c(c1)c(CC(=O)NS(=O)(=O)c1ccc(NCc3ccccc3)c([N+](=O)[O-])c1)c(C)n2-c1ccc(C)cc1", "values": [{"measurement": "Ki", "setting": "[2]", "result": "> 10", "unit": "µM"}]}
{"molecule": "COc1ccc2c(c1)c(CC(=O)N[C@@H](Cc1ccccc1)C(=O)NS(=O)(=O)c1ccccc1)c(C)n2-c1ccc(C)cc1", "values": [{"measurement": "Ki", "setting": "[2]", "result": "> 10", "unit": "µM"}]}
{"molecule": "COc1ccc(S(=O)(=O)NC(=O)Cc2c(C)n(-c3ccc(-c4ccccc4)cc3)c3ccc(OC)cc23)cc1", "values": [{"measurement": "Ki", "setting": "[2]", "result": "> 10", "unit": "µM"}]}
{"molecule": "COc1ccc2c(c1)c(CC(=O)N[C@@H](Cc1c[nH]c3ccccc13)C(=O)NS(=O)(=O)c1ccccc1)c(C)n2-c1ccc(-c2ccccc2)cc1", "values": [{"measurement": "Ki", "setting": "[2]", "result": "> 10", "unit": "µM"}]}
{"molecule": "COc1ccc2c(c1)c(CC(=O)NS(=O)(=O)c1ccc(NCCCc3ccccc3)c([N+](=O)[O-])c1)c(C)n2-c1ccc(-c2ccccc2)cc1", "values": [{"measurement": "Ki", "setting": "[2]", "result": "> 10", "unit": "µM"}]}
{"molecule": "COc1ccc2c(c1)c(CC(=O)NS(=O)(=O)c1ccc(Cl)c([N+](=O)[O-])c1)c(C)n2-c1ccc(C)cc1", "values": [{"measurement": "Ki", "setting": "[2]", "result": "> 10", "unit": "µM"}]}
{"molecule": "COc1ccc2c(c1)c(CC(=O)N[C@@H](Cc1ccccc1)C(=O)NS(=O)(=O)c1ccccc1)c(C)n2-c1ccc(-c2ccccc2)cc1", "values": [{"measurement": "Ki", "setting": "[1]", "result": 0.96, "unit": "µM"}, {"measurement": "Ki", "setting": "Bcl-2-like protein 1", "result": "Not Active"}, {"measurement": "IC50", "setting": "K562", "result": 18.8, "unit": "µM"}, {"measurement": "IC50", "setting": "MDA-MB-231", "result": 33.5, "unit": "µM"}, {"measurement": "IC50", "setting": "PC-3", "result": 17.5, "unit": "µM"}, {"measurement": "Ki", "setting": "[2]", "result": 0.35, "unit": "µM"}]}
{"molecule": "COc1ccc2c(c1)c(CC(=O)N[C@@H](Cc1ccccc1)C(=O)NS(=O)(=O)c1ccc(-c3ccccc3)cc1)c(C)n2-c1ccc(-c2ccccc2)cc1", "values": [{"measurement": "Ki", "setting": "[2]", "result": "> 10", "unit": "µM"}]}
{"molecule": "COc1ccc2c(c1)c(CC(=O)NS(=O)(=O)c1ccc(N3CCOCC3)c([N+](=O)[O-])c1)c(C)n2-c1ccc(-c2ccccc2)cc1", "values": [{"measurement": "Ki", "setting": "[2]", "result": "> 10", "unit": "µM"}]}
{"molecule": "COc1ccc2c(c1)c(CC(=O)NS(=O)(=O)c1ccc(Cl)c([N+](=O)[O-])c1)c(C)n2-c1ccc(-c2ccccc2)cc1", "values": [{"measurement": "Ki", "setting": "[2]", "result": 0.72, "unit": "µM"}]}
{"molecule": "COc1ccc2c(c1)c(CC(=O)N[C@@H](Cc1ccccc1)C(=O)NS(=O)(=O)c1ccc(Cl)cc1)c(C)n2-c1ccc(-c2ccccc2)cc1", "values": [{"measurement": "Ki", "setting": "[2]", "result": 0.91, "unit": "µM"}]}
{"molecule": "COc1ccc(S(=O)(=O)NC(=O)Cc2c(C)n(-c3ccc(C)cc3)c3ccc(OC)cc23)cc1", "values": [{"measurement": "Ki", "setting": "[2]", "result": "> 10", "unit": "µM"}]}
{"molecule": "COc1ccc2c(c1)c(CC(=O)N[C@@H](Cc1ccc(OCc3ccc([N+](=O)[O-])cc3)cc1)C(=O)NS(=O)(=O)c1ccc(Cl)c([N+](=O)[O-])c1)c(C)n2-c1ccc(C)cc1", "values": [{"measurement": "Ki", "setting": "[2]", "result": 0.72, "unit": "µM"}]}
{"molecule": "COc1ccc2c(c1)c(CC(=O)N[C@@H](Cc1ccc(OCc3ccc([N+](=O)[O-])cc3)cc1)C(=O)NS(=O)(=O)c1ccc(Cl)c([N+](=O)[O-])c1)c(C)n2-c1ccc(-c2ccccc2)cc1", "values": [{"measurement": "Ki", "setting": "[2]", "result": "> 10", "unit": "µM"}]}
{"molecule": "COc1ccc2c(c1)c(CC(=O)NS(=O)(=O)c1ccc(N3CCOCC3)c([N+](=O)[O-])c1)c(C)n2-c1ccc(C)cc1", "values": [{"measurement": "Ki", "setting": "[2]", "result": "> 10", "unit": "µM"}]}
{"molecule": "COc1ccc2c(c1)c(CC(=O)NS(=O)(=O)c1ccccc1)c(C)n2-c1ccc(-c2ccccc2)cc1", "values": [{"measurement": "Ki", "setting": "[2]", "result": "> 10", "unit": "µM"}]}
{"molecule": "COc1ccc(S(=O)(=O)NC(=O)[C@H](Cc2ccccc2)NC(=O)Cc2c(C)n(-c3ccc(-c4ccccc4)cc3)c3ccc(OC)cc23)cc1", "values": [{"measurement": "Ki", "setting": "[1]", "result": 0.88, "unit": "µM"}, {"measurement": "Ki", "setting": "Bcl-2-like protein 1", "result": "Not Active"}, {"measurement": "IC50", "setting": "K562", "result": 27.5, "unit": "µM"}, {"measurement": "IC50", "setting": "MDA-MB-231", "result": 38.6, "unit": "µM"}, {"measurement": "IC50", "setting": "PC-3", "result": 23.5, "unit": "µM"}, {"measurement": "Ki", "setting": "[2]", "result": 0.47, "unit": "µM"}]}
{"molecule": "COc1ccc(S(=O)(=O)NC(=O)[C@H](Cc2c[nH]c3ccccc23)NC(=O)Cc2c(C)n(-c3ccc(-c4ccccc4)cc3)c3ccc(OC)cc23)cc1", "values": [{"measurement": "Ki", "setting": "[2]", "result": "> 10", "unit": "µM"}]}
{"molecule": "COc1ccc2c(c1)c(CC(=O)NS(=O)(=O)c1ccc(NCc3ccccc3)c([N+](=O)[O-])c1)c(C)n2-c1ccc(-c2ccccc2)cc1", "values": [{"measurement": "Ki", "setting": "[2]", "result": "> 10", "unit": "µM"}]}
{"molecule": "COc1ccc2c(c1)c(CC(=O)NS(=O)(=O)c1ccc([N+](=O)[O-])cc1)c(C)n2-c1ccc(C)cc1", "values": [{"measurement": "Ki", "setting": "[2]", "result": "> 10", "unit": "µM"}]}
